Assay results published in ChEMBL document CHEMBL5506017, “Brain-Permeable Immunoproteasome-Targeting Macrocyclic Peptide Epoxyketones for Alzheimer's Disease” (J Med Chem, 2024).
The source made the active and inactive calls. The rule behind the calls is not given here.

How the values were obtained:
[1] = Mutagenicity in Salmonella typhimurium TA98 at 0.01 to 100 uM incubated for 90 mins in presence of liver S9 fraction by AMES test; type: toxicity, subcellular; conditions: salmonella enterica subsp. enterica serovar typhimurium, s9, 1.5 h, dose 0.01-100 µM
ARPE-19 = experiment: Cytotoxicity against human ARPE-19 cells assessed as reduction in cell viability at 30 to 100 uM incubated for 96 hrs by CellTiter 96 Aqueous One Solution Cell Proliferation Assay; type: toxicity, cell-based; conditions: arpe-19, 96 h, dose 30-100 µM
[2] = In vivo inhibition of LMP2 activity in BALB/c mouse brain at 40 mg/kg, iv measured after 2 hrs relative to control; type: functional
[3] = AUC (0 to last) in BALB/c mouse at 40 mg/kg, iv measured upto 1440 mins by LC-MS/MS analysis; type: ADME, organism-based; conditions: in vivo, 24 h
[4] = Apparent permeability of the compound across apical to basolateral side in human Caco-2 cells expressing Pgp/BCRP at 10 uM incubated for 120 mins by LC-MS/MS analysis; type: ADME, cell-based; conditions: caco-2, 2 h
[5] = Half life in BALB/c mouse at 40 mg/kg, iv measured upto 1440 mins by LC-MS/MS analysis; type: ADME, organism-based; conditions: in vivo, 24 h
[6] = biological target: T1, Proteasome subunit beta type-9 (Mus musculus) (UniProt P28076); experiment: Inhibition of LMP2 in mouse BV-2 cells using Ac-PAL-AMC as substrate at 0.3 to 1 uM measured after 24 hrs by fluorescence based SpectraMax M5e plate reader; type: cell-based; conditions: dose 0.3-1 µM
T1 sequence (whole entry): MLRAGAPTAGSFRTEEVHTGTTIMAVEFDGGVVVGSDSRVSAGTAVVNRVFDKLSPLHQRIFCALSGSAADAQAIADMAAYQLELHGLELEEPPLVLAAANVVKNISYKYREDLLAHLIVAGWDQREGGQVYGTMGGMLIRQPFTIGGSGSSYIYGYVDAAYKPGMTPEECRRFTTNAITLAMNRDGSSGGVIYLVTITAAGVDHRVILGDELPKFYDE

[7] = Toxicity in BALB/c mouse assessed as paralysis at 100 mg/kg, po; type: organism-based; conditions: in vivo
[8] = Toxicity in BALB/c mouse assessed as diarrhea at 100 mg/kg, po; type: organism-based; conditions: in vivo
[9] = Mutagenicity in Salmonella typhimurium TA100 at 0.01 to 100 uM incubated for 90 mins in presence of liver S9 fraction by AMES test; type: toxicity, subcellular; conditions: salmonella enterica subsp. enterica serovar typhimurium, s9, 1.5 h, dose 0.01-100 µM
[10] = Mutagenicity in Salmonella typhimurium TA100 at 0.01 to 100 uM incubated for 90 mins in absence of liver S9 fraction by AMES test; type: toxicity; conditions: salmonella enterica subsp. enterica serovar typhimurium, s9, 1.5 h, dose 0.01-100 µM
[11] = Cmax in BALB/c mouse at 40 mg/kg, iv measured upto 1440 mins by LC-MS/MS analysis; type: ADME, organism-based; conditions: in vivo, 24 h

AUClast [3]: 9689 ng·h/mL
Papp [4]: 6.62 10^-6 cm/s
t1/2 [5]: 25.2 min
inhibition [6]: Active
Cmax [11]: 25900 ng/mL
SMILES: CC(C)C[C@H](NC(=O)[C@@H]1COCCCCCC(=O)N2C[C@H](F)C[C@H]2C(=O)N1)C(=O)[C@@]1(C)CO1
Activity [1]: Non-Toxic
Activity (ARPE-19): Non-Toxic
inhibition in vivo at 40 mg/kg [2]: 56%
Activity [7]: Non-Toxic
Activity [8]: Non-Toxic
Activity [9]: Non-Toxic
Activity [10]: Non-Toxic
